We go through 8 substances from paper PMC9866861, “The More the Better—Investigation of Polymethoxylated N-Carboranyl Quinazolines as Novel Hybrid Breast Cancer Resistance Protein Inhibitors” (Pharmaceutics, 2023).

“Also recorded” adds a separate entry of the source.

One data set concerns the target T1, human ABCG2 transporter (Homo sapiens, UniProt Q9UNQ0).
T1 construct: expressed in transfected cells; host or cells: MDCKII (Madin-Darby canine kidney) cells transfected with human ABCG2
T1 sequence (Q9UNQ0 1-655): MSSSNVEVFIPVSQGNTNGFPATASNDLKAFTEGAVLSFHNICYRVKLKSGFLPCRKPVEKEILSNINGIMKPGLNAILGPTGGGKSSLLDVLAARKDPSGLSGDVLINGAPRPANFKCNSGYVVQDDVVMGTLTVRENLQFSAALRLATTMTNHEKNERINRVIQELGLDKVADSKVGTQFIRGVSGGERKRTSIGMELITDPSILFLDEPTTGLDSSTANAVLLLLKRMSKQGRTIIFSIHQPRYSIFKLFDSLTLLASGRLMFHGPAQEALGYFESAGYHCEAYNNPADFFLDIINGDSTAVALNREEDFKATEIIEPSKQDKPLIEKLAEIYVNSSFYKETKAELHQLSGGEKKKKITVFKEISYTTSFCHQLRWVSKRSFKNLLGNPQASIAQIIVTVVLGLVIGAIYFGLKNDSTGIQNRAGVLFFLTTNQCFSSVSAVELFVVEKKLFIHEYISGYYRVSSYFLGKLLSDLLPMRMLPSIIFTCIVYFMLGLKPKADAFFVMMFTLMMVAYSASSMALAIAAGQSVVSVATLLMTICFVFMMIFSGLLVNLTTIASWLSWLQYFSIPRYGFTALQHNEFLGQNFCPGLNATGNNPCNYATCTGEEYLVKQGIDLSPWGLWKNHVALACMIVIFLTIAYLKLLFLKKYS
The data set is described as follows: Hoechst 33342 accumulation assay (MDCKII-hABCG2 vs MDCKII-WT). The conditions noted are these: for inhibition of human ABCG2 transporter in Hoechst 33342 accumulation assay: 0.5 µM; for intracellular Hoechst 33342 accumulation / inhibition of ABCG2-mediated Hoechst efflux: 0.5 and 1.0 µM compound, Ko143 1 µM, 4 h, vs solvent control. The data set is classed as cell-based. On the procedure:
The Hoechst 33342 accumulation assay was used to detect an interaction of the investigated compounds with the human ABCG2 transporter. The assay protocol was adapted from that published by Wassermann et al.. The MDCKII-hABCG2 (2 × 10^4 cells/mL) and MDCKII-WT (3 × 10^4 cells/mL) cells were seeded in 96-well plates and cultured for 72 h. Afterwards, the sub-confluent monolayers were treated with 0.5 µM and 1.0 µM of the investigational compounds or its respective solvent control (0.1% DMSO) for 4 h. […] After 5 and 20 min, the cells were washed twice with ice-cold PBS buffer solution and lyzed with 100 µL/well 0.1% (v/v) SDS/PBS. The intracellular Hoechst 33342 amount was detected by spectrofluorometry (360 nm excitation/465 nm emission wavelengths, Tecan Infinite F200 Pro, Crailsheim, Germany). The examined fluorescence subtracted by the background of non-treated cells was correlated to the protein amount quantified by the bicinchoninic acid assay (BCA, Thermo Scientific, Rockford, IL, USA) following the manufacturer’s instructions. Relative fluorescence units (RFU) were calculated as the relation of fluorescence/mg protein of MDCKII-hABCG2 cells to MDCKII-WT cells, normalized to the solvent control set as 1 and expressed as mean ± SEM. The data from the Hoechst 3342 accumulation assay (five independent experiments N = 5) were tested for normality with the Shapiro-Wilk test. Significant differences compared to the solvent control were analyzed by one-way ANOVA with the Holm-Šidák post hoc test using SigmaPlot 14.5 (Systec Software, San Jose, CA, USA). An inhibition of human ABCG2 efflux transport activity is defined as the significant difference to the solvent control (0.1% DMSO).

A further data set relates to MDCKII-WT cells. The data set is described as follows: WST-1 cell proliferation assay (cytotoxicity), MDCKII-WT. It counts as cell-based, canine. The conditions noted are these: WST-1, 48 h; for IC50: IC50 = 50% reduced cell viability, mean ± SEM, N = 3. On the procedure:
(§1) The MDCKII-hABCG2 and MDCKII-WT cells were purchased from Alfred Schinkel (Het Nederlands Kanker Instituut, Amsterdam, The Netherlands) and were cultivated in MEM (minimal essential medium) with Earle’s Salts (2.2 g/L NaHCO3, stable glutamine; Biowest, Nuaillé, France) supplemented with 10% (v/v) fetal calf serum (Life Technology, Karlsruhe, Germany), 1% (v/v) non-essential amino acids (Biowest, Nuaillé, France), 100 U/mL penicillin, and 100 µg/mL streptomycin (Biowest, Nuaillé, France). The cells were grown in a humidified atmosphere (37 °C, 5% CO2) and were sub-cultured every 3 to 4 days using 0.05% trypsin/0.02% EDTA (Biowest, Nuaillé, France), up to a total of 14 passages.
(§2) MDCKII-hABCG2 cells and their parental MDCKII-WT cells were seeded in 96-well plates (TPP, Trasadingen, Switzerland) in a density of 2 × 10^4 cells/mL and 3 × 10^4 cells/mL, respectively. After 48 h, the cells were incubated with increasing concentrations of up to 50 µM of the novel synthesized compounds, with 0.1% Triton X-100 as the positive control and solvent (0.1% DMSO) as the negative control for 48 h. Afterwards, the substance-specific cytotoxicity was determined by the water-soluble tetrazolium-1 (4-[3-(4-iodophenyl)-2-(4-nitro-phenyl)-2H-5-tetrazolio]-1,3-benzene sulfonate; WST-1) assay as previously described. The cell viability was determined by microplate reader at 450 nm (Tecan Sunrise, Crailsheim, Germany). The data of three independent experiments (N = 3) were tested for normality with the Shapiro-Wilk test. The significant differences compared to solvent control were analyzed by one-way ANOVA with the Holm-Šidák post hoc test using SigmaPlot 14.5 (Systec Software, San Jose, CA, USA). The data were normalized against the vehicle control (0.1% DMSO) and were expressed as mean ± SEM.

The test system of data set [1] is MDCKII-hABCG2 cells. Kind of data set: WST-1 cell proliferation assay (cytotoxicity), MDCKII-hABCG2. It counts as cell-based, canine. The conditions noted are these: for IC50: WST-1, 48 h, IC50 = 50% reduced cell viability, mean ± SEM, N = 3; for cell viability: MDCKII-hABCG2, highest concentration 50 µM, 48 h. On the procedure: as §1, §2
(Tetrazolium dyes change colour on reduction, which living cells bring about.)

Data set [2] relates to MDCKII-hABCG2 cells. The data set is described as follows: Reversal of ABCG2-mediated mitoxantrone resistance (WST-1). The data set is classed as cell-based, canine. The conditions noted are these: for Left-Shift Factor: MDCKII-hABCG2, MXN + 1 µM compound, (IC50 minus SEM of MXN alone) by (IC50 plus SEM of combination). Here is the method: Afterwards, the WST-1 assay was performed as described. […] All data were normalized against the vehicle control and were expressed as mean ± SEM, calculated from at least three independent experiments.

In general, IC50 refers to the concentration at which inhibition is half-maximal. The low end stands for higher potency, the high end for lower potency. Regarding “N-(closo-1,7-dicarbadodecaboran(12)-9-yl)-6,7-dimethoxy-2-(3,4,5-trimethoxyphenyl)-quinazolin-4-amine [DMQCd]”, the “inhibition of human ABCG2 transporter in Hoechst 33342 accumulation assay” value on human ABCG2 transporter is reported as “inhibited the human ABCG2 transporter”. Also, the “intracellular Hoechst 33342 accumulation / inhibition of ABCG2-mediated Hoechst efflux” value on human ABCG2 transporter is recorded as “strongest inhibition at 0.5 µM with a comparable level as the reference Ko143”. Besides, the IC50 in the data set with MDCKII-WT cells and in the data set with MDCKII-hABCG2 cells [1] was > 50 µM throughout.

Take “N-(closo-1,7-dicarbadodecaboran(12)-9-yl)-2-(3,4,5-trimethoxyphenyl)-quinazolin-4-amine [QCd]”: the “intracellular Hoechst 33342 accumulation / inhibition of ABCG2-mediated Hoechst efflux” value on human ABCG2 transporter is reported as “did not affect the human ABCG2-mediated Hoechst efflux”. The IC50 with MDCKII-WT cells and in the data set with MDCKII-hABCG2 cells [1] was > 50 µM each time.

As usually defined, the cell viability is a read-out of living cells in per cent, often relative to untreated cells. Low values mean more harm to the cells, high ones less harm to the cells. Consider “N-(closo-1,7-dicarbadodecaboran(12)-9-yl)-2-(4-methoxyphenyl)-quinazolin-4-amine [QCb]”, for which, at human ABCG2 transporter, the “intracellular Hoechst 33342 accumulation / inhibition of ABCG2-mediated Hoechst efflux” value is recorded as “did not affect the human ABCG2-mediated Hoechst efflux”. In the data set with MDCKII-WT cells, this substance gave an IC50 of 44.17 ± 0.174 µM. Also, in the data set with MDCKII-hABCG2 cells [1], the cell viability was found to be 30% and the IC50 was > 10 µM.

Consider “N-(closo-1,7-dicarbadodecaboran(12)-9-yl)-6,7-dimethoxy-2-(3,4-dimethoxy-phenyl)-quinazolin-4-amine [DMQCc]”, for which, in the data set with MDCKII-hABCG2 cells [2], the “Left-Shift Factor” value is on record as 9.8-fold. Moreover, the “intracellular Hoechst 33342 accumulation / inhibition of ABCG2-mediated Hoechst efflux” value at human ABCG2 transporter is “only marginal increases in Hoechst 33342 accumulation; also recorded: no significant inhibition”. In addition, the IC50 in the data set on MDCKII-WT cells and in the data set on MDCKII-hABCG2 cells [1] was > 50 µM in each case.

Consider “N-(closo-1,7-dicarbadodecaboran(12)-9-yl)-6,7-dimethoxy-2-(4-methoxy-phenyl)quinazolin-4-amine [DMQCb]”, for which the “Left-Shift Factor” value in the data set with MDCKII-hABCG2 cells [2] was 7.2-fold. Further, the “intracellular Hoechst 33342 accumulation / inhibition of ABCG2-mediated Hoechst efflux” value on human ABCG2 transporter is “only marginal increases in Hoechst 33342 accumulation; also recorded: no significant inhibition”. The decreased cell viability in the data set with MDCKII-WT cells (MDCKII-WT) was ~30%. Besides, the IC50 in the data set on MDCKII-WT cells and with MDCKII-hABCG2 cells [1] was > 25 µM each time.

“N-(closo-1,7-dicarbadodecaboran(12)-9-yl)-6,7-dimethoxy-2-phenyl-quinazolin-4-amine [DMQCa]”: the “Left-Shift Factor” value in the data set with MDCKII-hABCG2 cells [2] is on record as 4.3-fold. Further, on human ABCG2 transporter, the “intracellular Hoechst 33342 accumulation / inhibition of ABCG2-mediated Hoechst efflux” value is recorded as “improved inhibitory potency at 1.0 µM”. In addition, the IC50 with MDCKII-WT cells and with MDCKII-hABCG2 cells [1] was > 50 µM throughout.

Take “N-(closo-1,7-dicarbadodecaboran(12)-9-yl)-2-(3,4-dimethoxyphenyl)-quinazolin-4-amine [QCc]”: the “reversal of MXN resistance” value in the data set on MDCKII-hABCG2 cells [2] (MDCKII-hABCG2, 1 µM compound with MXN) is reported as “able to reverse MXN resistance”. Besides, the “Left-Shift Factor” value in the data set on MDCKII-hABCG2 cells [2] was 5.4-fold. Further, on human ABCG2 transporter, the “inhibition of human ABCG2 transporter in Hoechst 33342 accumulation assay” value was “inhibited the human ABCG2 transporter” and the “intracellular Hoechst 33342 accumulation / inhibition of ABCG2-mediated Hoechst efflux” value is reported as “the only compound exhibiting inhibition within the tested concentration range”. In the data set on MDCKII-WT cells, the IC50 was > 50 µM. Also, the decreased cell viability entry with MDCKII-hABCG2 cells [1] (MDCKII-hABCG2, WST-1, 48 h, up to 50 µM) was “about 40%”. Further, the half-inhibitory concentration (IC50) in the data set on MDCKII-hABCG2 cells [1] was > 50 µM.

As to “N-(closo-1,7-dicarbadodecaboran(12)-9-yl)-2-phenylquinazolin-4-amine [QCa]”, at human ABCG2 transporter, the “intracellular Hoechst 33342 accumulation / inhibition of ABCG2-mediated Hoechst efflux” value is given as “did not affect the human ABCG2-mediated Hoechst efflux”. Moreover, half-maximal inhibition with MDCKII-WT cells (IC50) was put at 43.23 ± 0.159 µM. Also, in the data set on MDCKII-hABCG2 cells [1], the cell viability was 30% and the IC50 is > 10 µM.
